The values below come from PMC12037410, “Pharmacological targeting of BMAL1 modulates circadian and immune pathways” (Nature Chemical Biology, 2025).

In the first assay the target is BMAL1 (Homo sapiens, UniProt O00327). On the set-up: PASB domain (residues 338–449); Protein thermal shift (PTS) fragment screen on recombinant human BMAL1(PASB), shift of melting temperature. The following applies: binder.
BMAL1, sequence (O00327 338-449): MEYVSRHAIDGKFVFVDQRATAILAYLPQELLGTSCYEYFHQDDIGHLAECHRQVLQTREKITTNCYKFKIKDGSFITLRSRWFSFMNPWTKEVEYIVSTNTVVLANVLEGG
Take `NCCc1ccc(S(N)(=O)=O)cc1` [Prestw-Frag-1076, Compound 338]: the “Bmal1(PASB) dTmB” value is given as -0.53.

The same assay, now with this note: dTmB; binder.
As for `c1ccc2c(c1)CCNCC2` [Prestw-Frag-3750, Compound 343], the “Bmal1(PASB) dTmB” value is -0.06 °C.

Turning to `c1ccc(-c2ccccc2-c2nn[nH]n2)cc1` [Prestw-Frag-1441, Compound 357], the “Bmal1(PASB) dTmB” value was -0.44 °C. Take `O=C(c1ccccc1)N1CCNCC1` [Prestw-Frag-3677, Compound 184]: the “Bmal1(PASB) dTmB” value was -0.65 °C.

In the case of `Nc1ccnn1-c1ccccc1` [Prestw-Frag-1648, Compound 208], the “Bmal1(PASB) dTmB” value is -0.34 °C. Still for that read-out and setting: then `OCc1ccc(F)cc1F` [Prestw-Frag-3100, Compound 349], with 0.05 °C. On to `O=C(Cc1ccccc1F)C1CC1` [Prestw-Frag-3198, Compound 60], for which the “Bmal1(PASB) dTmB” value is -1.49 °C. The same measure, in the same setting: then `CN(C)CCNC(=O)c1ccc(N)cc1` [Prestw-Frag-2031, Compound 430], with -0.84 °C; and `Nc1cccnn1` [Prestw-Frag-2072, Compound 233], with -0.18 °C. On the same count and under the same terms, then `NCc1ncc[nH]1` [Prestw-Frag-3689, Compound 15], with -1.37 °C; and `CN(C)CCNCc1ccccc1` [Prestw-Frag-1476, Compound 397], with -0.27 °C. On the same count and under the same terms, then `OCc1ccc2c(c1)OCO2` [Prestw-Frag-3741, Compound 372], with -0.20 °C. For the compound `CC(C(=O)O)c1ccccc1` (centres unmarked) [Prestw-Frag-1859, Compound 194], the “Bmal1(PASB) dTmB” value is -0.02 °C. For the compound `CC(=O)Nc1ccccn1` [Prestw-Frag-1782, Compound 170], the “Bmal1(PASB) dTmB” value is -0.28 °C.

In the case of `CC(C)C1NCCc2c1[nH]c1ccccc21` (centres unmarked) [Prestw-Frag-1264, Compound 134], the “Bmal1(PASB) dTmB” value was -1.09 °C.

Regarding `CCC(C(=O)OCCN(CC)CC)c1ccccc1` (centres unmarked) [Prestw-Frag-1343, Compound 396], the “Bmal1(PASB) dTmB” value was -1.01 °C. For `Cc1cccc(Nc2ccccc2C(=O)O)c1` [Prestw-Frag-1320, Compound 17], the “Bmal1(PASB) dTmB” value is -0.74 °C. For `CC(C)(C)NCC(O)COc1ccccc1C1CCCC1` (centres unmarked) [Prestw-Frag-0674, Compound 468], the “Bmal1(PASB) dTmB” value is -1.95 °C. The same measure, in the same setting: then `COc1ccc2ccncc2c1` [Prestw-Frag-1133, Compound 321], with -1.08 °C; and `O=C(O)c1cccc(-c2ccc(F)cc2F)c1` [Prestw-Frag-1238, Compound 368], with -0.92 °C; and `CC(=O)c1cc(Cl)ccc1O` [Prestw-Frag-1083, Compound 280], with -0.22 °C. The same measure, in the same setting: then `OCC(O)COc1ccccc1` (centres unmarked) [Prestw-Frag-1337, Compound 306], with 0.63 °C. On to `O=c1[nH]c2ccccc2o1` [Prestw-Frag-1087, Compound 245], for which the “Bmal1(PASB) dTmB” value was -0.27 °C. On the same count and under the same terms, then `Nc1cccc(C(F)(F)F)c1` [Prestw-Frag-1322, Compound 231], with 0.29 °C. Same read-out and setting: then `C[C@H]1NC(=O)NC1=O` [Prestw-Frag-1311, Compound 224], with -0.36 °C.

`c1ccc(C(c2ccccc2)N2CCCNCC2)cc1` [Prestw-Frag-1817, Compound 445]: the “Bmal1(PASB) dTmB” value was -1.89 °C.

In the case of `NC(=O)c1ccccn1` [Prestw-Frag-2131, Compound 358], the “Bmal1(PASB) dTmB” value is -0.11 °C. The same measure, in the same setting: then `Cc1c(N)c(=O)n(-c2ccccc2)n1C` [Prestw-Frag-1807, Compound 18], with -0.46 °C; and `CS(=O)(=O)Nc1ccccc1Oc1ccccc1` [Prestw-Frag-1861, Compound 432], with -1.83 °C.

`Fc1ccc(CN2CCNCC2)cc1` [Prestw-Frag-3673, Compound 274]: the “Bmal1(PASB) dTmB” value is -1.00 °C. The same measure, in the same setting: then `CS(=O)(=O)c1ccc(CO)cc1` [Prestw-Frag-2234, Compound 220], with -0.40 °C. Turning to `CC(=O)NCCc1c[nH]c2ccccc12` [Prestw-Frag-1478, Compound 417], the “Bmal1(PASB) dTmB” value is -0.27 °C.

With `Nc1ccc([N+](=O)[O-])cc1Cl` [Prestw-Frag-1543, Compound 463], the “Bmal1(PASB) dTmB” value stood at 0.66 °C. Regarding `CCN(CC)C(=O)/C=C/c1ccccc1` [Prestw-Frag-3088, Compound 429], the “Bmal1(PASB) dTmB” value was -1.63 °C. The same measure, in the same setting: then `NCCCOc1cccc(CN2CCCCC2)c1` [Prestw-Frag-2808, Compound 156], with -1.04 °C. Same read-out and setting: then `OCCN1CCN(c2ccccc2)CC1` [Prestw-Frag-1945, Compound 144], with -0.42 °C.

For `Cc1cc(C)[nH]c(=O)n1` [Prestw-Frag-3247, Compound 190], the “Bmal1(PASB) dTmB” value worked out at 0.01 °C. The same measure, in the same setting: then `O=C(CCc1ccccc1)c1ccccc1O` [Prestw-Frag-2152, Compound 434], with -0.33 °C; and `S=c1[nH]c2ccccc2[nH]1` [Prestw-Frag-2539, Compound 1], with 6.28 °C; and `CNS(=O)(=O)c1ccccc1` [Prestw-Frag-2023, Compound 256], with -0.20 °C. The same measure, in the same setting: then `Clc1cccc(N2CCNCC2)c1Cl` [Prestw-Frag-2853, Compound 42], with -1.63 °C. The same measure, in the same setting: then `O=C(O)CNC(=O)c1ccccc1` [Prestw-Frag-2576, Compound 196], with 0.18 °C. Turning to `Oc1ccc2c(c1)CCC2` [Prestw-Frag-3713, Compound 89], the “Bmal1(PASB) dTmB” value was -0.82 °C. On to `Oc1ccc2cc[nH]c2c1` [Prestw-Frag-1374, Compound 33], for which the “Bmal1(PASB) dTmB” value worked out at 0.97 °C. On the same count and under the same terms, then `NNC(=O)c1ccncc1` [Prestw-Frag-1419, Compound 226], with -0.26 °C; and `Cc1ccccc1NC(=O)C(C)N` (centres unmarked) [Prestw-Frag-1856, Compound 389], with 0.12 °C; and `COc1cc2c(cc1OC)C(C)N(C)CC2` (centres unmarked) [Prestw-Frag-1273, Compound 218], with -0.29 °C. The same measure, in the same setting: then `Nc1ncn([C@@H]2O[C@H](CO)[C@@H](O)[C@H]2O)c(=O)n1` [Prestw-Frag-3302, Compound 121], with -0.02 °C; and `CC(N)COc1ccccc1` (centres unmarked) [Prestw-Frag-1691, Compound 270], with 0.11 °C; and `Clc1cccc2ncccc12` [Prestw-Frag-2593, Compound 66], with -0.75 °C. With `Oc1ccc2[nH]ccc2c1` [Prestw-Frag-1645, Compound 308], the “Bmal1(PASB) dTmB” value came to 0.24 °C.

`OC1(c2ccc(Cl)cc2)CCNCC1` [Prestw-Frag-1365, Compound 373]: the “Bmal1(PASB) dTmB” value was -1.00 °C. Same read-out and setting: then `O=C(O)C1(c2ccccc2)CCCC1` [Prestw-Frag-2049, Compound 104], with -0.56 °C; and `COC(=O)C(O)(c1ccccc1)C1CCCC1` (centres unmarked) [Prestw-Frag-2484, Compound 442], with -1.34 °C; and `FC(F)(F)c1ccn[nH]1` [Prestw-Frag-3726, Compound 192], with 0.30 °C. Still for that read-out and setting: then `O=C(O)C(CO)c1ccccc1` (centres unmarked) [Prestw-Frag-1686, Compound 284], with -1.23 °C; and `CCNC(=O)c1cccnc1` [Prestw-Frag-2794, Compound 205], with 0.17 °C; and `O=C(O)c1cc(-c2ccc(F)cc2)ccc1O` [Prestw-Frag-1239, Compound 277], with -1.13 °C. Still for that read-out and setting: then `CC(C)(C)NCC(O)c1ccccc1` (centres unmarked) [Prestw-Frag-1929, Compound 213], with -0.34 °C; and `O=c1[nH]nc(Cc2ccc(Cl)cc2)c2ccccc12` [Prestw-Frag-1559, Compound 61], with -0.44 °C. Regarding `CN(C)C(=O)C(c1ccccc1)c1ccccc1` [Prestw-Frag-1453, Compound 166], the “Bmal1(PASB) dTmB” value was -0.94 °C. The same measure, in the same setting: then `COc1ccc(Cc2ccc(OC)cc2)cc1` [Prestw-Frag-1033, Compound 354], with -0.11 °C; and `NC(=O)NS(=O)(=O)c1ccccc1` [Prestw-Frag-1006, Compound 100], with 0.09 °C. Regarding `NNC(=O)c1ccccc1` [Prestw-Frag-1420, Compound 187], the “Bmal1(PASB) dTmB” value was -0.31 °C. On the same count and under the same terms, then `CCNC(=O)c1ccc(Cl)cc1` [Prestw-Frag-2818, Compound 347], with -0.36 °C; and `CN1[C@@H]2CC[C@H]1CC(O)C2` (some centres unmarked) [Prestw-Frag-0608, Compound 128], with -0.41 °C.

Regarding `NC(=O)c1[nH]cnc1N` [Prestw-Frag-2268, Compound 14], the “Bmal1(PASB) dTmB” value was -0.68 °C.

As for `O=C1CCCc2[nH]ccc21` [Prestw-Frag-2675, Compound 219], the “Bmal1(PASB) dTmB” value was 0.11 °C.

On to `COc1cc(NS(=O)(=O)c2ccc(N)cc2)ncn1` [Prestw-Frag-2337, Compound 376], for which the “Bmal1(PASB) dTmB” value worked out at 0.09 °C. `CNC(C)(C)Cc1ccccc1` [Prestw-Frag-1141, Compound 101]: the “Bmal1(PASB) dTmB” value is -0.69 °C. For the compound `c1ccc2cnccc2c1` [Prestw-Frag-2493, Compound 131], the “Bmal1(PASB) dTmB” value was -0.12 °C. On to `Nc1ncc([N+](=O)[O-])s1` [Prestw-Frag-3324, Compound 478], for which the “Bmal1(PASB) dTmB” value was -7.14 °C.

For the compound `Cc1ccccc1-c1ccccc1CO` [Prestw-Frag-1923, Compound 451], the “Bmal1(PASB) dTmB” value is -1.24 °C. On the same count and under the same terms, then `c1ccc(C(CCN2CCCCC2)c2ccccc2)cc1` [Prestw-Frag-1193, Compound 402], with -2.05 °C; and `CC(C)(C)OC(=O)/C=C/c1ccccc1` [Prestw-Frag-2947, Compound 382], with -0.17 °C. On the same count and under the same terms, then `COC(=O)c1c[nH]c2ccccc12` [Prestw-Frag-2799, Compound 456], with -0.14 °C. Still for that read-out and setting: then `CN1CCNCC1=O` [Prestw-Frag-3460, Compound 125], with 0.00 °C.
